Structures can show the parent of a compound that is named as a salt. Where two headings read alike, the source gives them in different places.

The record followed here is patent publication US10899710B2, “Pyridines and their use in the treatment of cancer” (The United States of America, as represented by the …, priority 2015, dated 2021).

The target in test [1] is T1, recombinant thioredoxin reductase 1 (TrxR1) (Homo sapiens, UniProt Q16881).
T1 sequence (Q16881 151-649 limits assumed): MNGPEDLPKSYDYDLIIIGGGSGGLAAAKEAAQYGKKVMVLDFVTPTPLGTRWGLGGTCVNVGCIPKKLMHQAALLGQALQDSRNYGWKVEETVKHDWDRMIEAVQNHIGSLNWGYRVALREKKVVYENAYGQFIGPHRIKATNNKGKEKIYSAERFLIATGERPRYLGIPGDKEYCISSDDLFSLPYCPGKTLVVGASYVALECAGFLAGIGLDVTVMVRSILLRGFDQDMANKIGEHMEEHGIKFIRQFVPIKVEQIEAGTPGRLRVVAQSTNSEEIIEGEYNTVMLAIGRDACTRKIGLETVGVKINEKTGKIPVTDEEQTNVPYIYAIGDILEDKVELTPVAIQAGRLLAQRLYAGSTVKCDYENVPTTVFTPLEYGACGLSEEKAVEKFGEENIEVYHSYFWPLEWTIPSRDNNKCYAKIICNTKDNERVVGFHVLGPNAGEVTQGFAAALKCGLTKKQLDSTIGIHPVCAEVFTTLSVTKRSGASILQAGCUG
The test can be described thus: Inhibition of recombinant TrxR1 (DTNB assay). In kind it is biochemical. The settings on record: read-out: TrxR inhibition (IC50). As to the method:
(§1) Small molecule inhibition of recombinant thioredoxin reductase 1 (TrxR1) and gluthathione reductase (GR) was examined in 96-well plate format. 15 nM TrxR1 was incubated in the presence of 250 μM NADPH, 0.1 mg/ml BSA, and various concentrations of the compound of Example 1 (1% DMSO final) in 50 mM Tris (pH 7.5) and 2 mM EDTA buffer for 15 minutes. Following the incubation period, 2.5 mM DTNB was added to each well and the change in O.D. at 412 nm was followed. Percent activity was determined using DMSO vehicle and no TrxR1 (blank) controls. 2 nM GR was incubated in the presence of 250 μM NADPH, 0.1 mg/ml BSA, and various concentrations of compounds (1% DMSO final) in 50 mM Tris (pH 7.5) and 2 mM EDTA buffer for 15 minutes. Following the incubation period, 1 mM GSSG was added to each well and the change in O.D. at 340 nm was followed. Percent activity was determined using DMSO vehicle and no GR (blank) controls.

In test [2] the target is T2, gluthathione reductase (GR) (Homo sapiens, UniProt P00390).
T2 sequence (P00390 44-522): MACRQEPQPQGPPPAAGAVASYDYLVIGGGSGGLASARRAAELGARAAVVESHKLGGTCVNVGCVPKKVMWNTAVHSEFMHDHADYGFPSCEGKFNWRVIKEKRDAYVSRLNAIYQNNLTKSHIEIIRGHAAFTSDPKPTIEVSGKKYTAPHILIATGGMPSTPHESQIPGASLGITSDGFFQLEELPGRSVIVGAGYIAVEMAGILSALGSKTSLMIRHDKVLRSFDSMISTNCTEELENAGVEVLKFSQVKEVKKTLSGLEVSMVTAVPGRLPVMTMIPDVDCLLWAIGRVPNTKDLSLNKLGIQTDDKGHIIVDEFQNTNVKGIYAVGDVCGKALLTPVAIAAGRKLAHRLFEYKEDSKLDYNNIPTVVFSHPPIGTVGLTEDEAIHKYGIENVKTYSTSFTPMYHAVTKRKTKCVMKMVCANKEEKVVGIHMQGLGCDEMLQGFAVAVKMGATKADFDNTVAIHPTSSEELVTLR
Nature of the test: Inhibition of recombinant GR (GSSG assay). Type of test: biochemical. As to the method:
as §1

The next test concerns FaDu cell line. Nature of the test: Cell viability inhibition, FaDu cell line. Type of test: cell-based. The settings on record: Homo sapiens, Biological Example 4, 72 hrs. As to the method:
Cell lines were plated 2000 cells/well in 96-well black optical plates in the presence of 10% FBS media containing 25 nM selenite. The following day cells were treated with various concentrations of the compound of Example 1 (0.1% DMSO final) and incubated for 72 hrs. After the incubation Cell-Quanti Blue reagent was added to each well and incubated for additional 3 hrs. Fluorescence was read ex:530 nm/em:590 nm, and percent of viability was determined using DMSO vehicle and no cell (blank) controls.
Using the assays described in Biological Example 1 to assess inhibition of recombinant TrxR1 and GR, the following IC50 values were obtained for the examples described herein. Further, following the protocol described in Biological Example 2, the following IC50 values were obtained for inhibition of cell viability using the FaDu cell line.

The mark [3] stands for this setting: Biological Example 1, 15 nM TrxR1, 15 minutes incubation.
The mark [4] stands for this setting: Biological Example 1, 2 nM GR, 15 minutes incubation.

Consider `O=[N+]([O-])c1cccnc1S(=O)(=O)c1ccccc1` [Example 2, 3-Nitro-2-(phenylsulphonyl)pyridine Trifluoroacetate], for which the IC50 is 0.155 µM in test [1] (setting [3]); 0.289 µM in test [1] (Biological Example 4); more than 100 µM in test [2] (setting [4]); more than 100 µM in test [2] (Biological Example 4); 1.42 µM in the test with FaDu cell line.

As to `Cc1ccc(S(=O)(=O)c2ncccc2[N+](=O)[O-])cc1` [Example 3, 3-Nitro-2-tosylpyridine Hydrochloride], the IC50 in test [1] (setting [3]) was 0.282 µM; in test [1] (Biological Example 4) it was 0.221 µM; in test [2] (setting [4]), more than 100 µM; in test [2] (Biological Example 4), more than 100 µM; with FaDu cell line, 2.55 µM.

With `COc1ccc([N+](=O)[O-])c(S(=O)(=O)c2ccccc2)n1` [Example 4, 6-Methoxy-3-nitro-2-(phenylsulphonyl)pyridine Trifluoroacetate], the half-maximal inhibitory concentration (IC50) in test [1] (setting [3]) amounted to 0.024 µM; in test [1] (Biological Example 4), 0.024 µM; in test [2] (setting [4]), 25.2 µM; in test [2] (Biological Example 4), 30.8 µM; in the test with FaDu cell line it was 3.26 µM.

Regarding `O=[N+]([O-])c1cccnc1S(=O)(=O)c1ccc(Cl)cc1` [Example 5, 2-((4-Chlorophenyl)sulphonyl)-3-nitropyridine Trifluoroacetate], the IC50 turned out to be 0.098 µM in test [1] (setting [3]); 0.151 µM in test [1] (Biological Example 4); 47.9 µM in test [2] (setting [4]); 93 µM in test [2] (Biological Example 4); 1.84 µM in the test on FaDu cell line.

For `COc1ccc([N+](=O)[O-])c(S(=O)(=O)c2ccc(C)cc2)n1` [Example 6, 6-Methoxy-3-nitro-2-tosylpyridine], the IC50 in test [1] (Biological Example 4) is 0.103 µM; in test [2] (Biological Example 4), more than 100 µM; with FaDu cell line, 1.38 µM.

For `COc1ccc(S(=O)(=O)c2nc(OC)ccc2[N+](=O)[O-])cc1` [Example 7, 6-Methoxy-2-((4-methoxyphenyl)sulfonyl)-3-nitropyridine], the IC50 in test [1] (Biological Example 4) was 0.228 µM; in test [2] (Biological Example 4), more than 100 µM; in the test with FaDu cell line, 2.75 µM.

For `O=[N+]([O-])c1ccc(Cl)nc1S(=O)(=O)c1ccc(Cl)cc1` [Example 8, 6-Chloro-2-((4-chlorophenyl)sulfonyl)-3-nitropyridine], the IC50 worked out at 0.016 µM in test [1] (Biological Example 4), 3.57 µM in test [2] (Biological Example 4) and 0.84 µM in the test on FaDu cell line.

On to `COc1ccc(S(=O)(=O)c2nc(Cl)ccc2[N+](=O)[O-])cc1` [Example 9, 6-Chloro-2-((4-methoxyphenyl)sulfonyl)-3-nitropyridine], for which the IC50 in test [1] (Biological Example 4) turned out to be 0.07 µM; in test [2] (Biological Example 4) it was 41.7 µM; in the test on FaDu cell line, 0.51 µM.

`O=[N+]([O-])c1ccc(Cl)nc1S(=O)(=O)c1ccccc1` [Example 10, 6-Chloro-3-nitro-2-(phenylsulfonyl)pyridine]: the values for the IC50 (in test [1] (Biological Example 4); in test [2] (Biological Example 4); in the test on FaDu cell line) were 0.056 µM, 14.5 µM and 0.25 µM, respectively.

With `Cc1ccc(S(=O)(=O)c2nc(Cl)ccc2[N+](=O)[O-])cc1` [Example 11, 6-Chloro-3-nitro-2-tosylpyridine], the IC50 was 0.04 µM in test [1] (Biological Example 4), 23.7 µM in test [2] (Biological Example 4) and 0.39 µM with FaDu cell line.

As for `COc1ccc(S(=O)(=O)c2nc(N(C)C)ccc2[N+](=O)[O-])cc1` [Example 12, 6-((4-Methoxyphenyl)sulfonyl)-N,N-dimethyl-5-nitropyridin-2-amine], the IC50 in test [1] (Biological Example 4) is 0.513 µM; in test [2] (Biological Example 4) it was more than 100 µM; in the test on FaDu cell line it was 7.89 µM.

Consider `CN(C)c1ccc([N+](=O)[O-])c(S(=O)(=O)c2ccc(Cl)cc2)n1` [Example 13, 6-((4-Chlorophenyl)sulfonyl)-N,N-dimethyl-5-nitropyridin-2-amine], for which the IC50 in test [1] (Biological Example 4) is 0.176 µM; in test [2] (Biological Example 4), more than 100 µM; in the test with FaDu cell line, 12.9 µM.

As for `CN(C)c1ccc([N+](=O)[O-])c(S(=O)(=O)c2ccccc2)n1` [Example 14, N,N-dimethyl-5-nitro-6-(phenylsulfonyl)pyridin-2-amine], the IC50 is 0.345 µM in test [1] (Biological Example 4), more than 100 µM in test [2] (Biological Example 4) and 5.32 µM in the test with FaDu cell line.

Consider `Cc1ccc(S(=O)(=O)c2nc(N(C)C)ccc2[N+](=O)[O-])cc1` [Example 15, N,N-dimethyl-5-nitro-6-tosylpyridin-2-amine], for which the IC50 in test [1] (Biological Example 4) was 0.438 µM; in test [2] (Biological Example 4) it was more than 100 µM; with FaDu cell line, 5.91 µM.
